Experiments:
mouse [1] = conditions: Carcinogenicity, other, Oral, Feed, dose end: 92 week, group: systemic
rat [2] = conditions: Combined chronic toxicity/carcinogenicity, wistar, Oral, Feed, dose end: 104 week, group: systemic
rat [3] = conditions: Subchronic oral toxicity in rodents, fischer, Water, dose end: 13 week, group: systemic
rat [4] = conditions: Combined chronic toxicity/carcinogenicity; fischer; Oral; Water; dose end: 21 month; group: systemic; systemic / pathology microscopic / heart / thrombus + systemic / pathology microscopic / liver / degeneration + systemic / pathology …
rat [5] = conditions: Subchronic oral toxicity in rodents, fischer, Water, dose end: 13 week, group: systemic; remark: listed apart in the source
dog = conditions: Chronic toxicity; beagle; Oral; Feed; dose end: 12 month; group: systemic; systemic / clinical chemistry / sodium / sodium + systemic / in life observation / body weight / body weight + systemic / in life …
rat [6] = conditions: Combined chronic toxicity/carcinogenicity; sprague dawley; Oral; Feed; dose end: 24 month; group: systemic; systemic / clinical chemistry / sodium / sodium
rat [7] = conditions: Prenatal developmental toxicity study, sprague dawley, Oral, Gavage/Intubation, dose end: 16 GD
rabbit = conditions: Prenatal developmental toxicity study, new zealand white, Oral, Gavage/Intubation, dose end: 19 GD, group: maternal
mouse [8] = conditions: Subchronic oral toxicity in rodents, b6c3f1, Water, dose end: 30 day, group: systemic
[9] = systemic / pathology microscopic / liver / depletion glycogen
[10] = systemic / pathology microscopic / liver / depletion glycogen + systemic / pathology microscopic / lung / adenocarcinoma + systemic / …
[11] = systemic / pathology microscopic / liver / hypertrophy + systemic / pathology microscopic / thyroid gland / [other]
[12] = systemic / pathology microscopic / liver / hypertrophy + systemic / pathology microscopic / thyroid gland / [other] + systemic / in life …
[13] = systemic / clinical chemistry / creatinine / creatinine + systemic / clinical chemistry / thyroxine (t4) / thyroxine (t4), total + systemic…
[14] = systemic / in life observation / body weight / body weight + systemic / pathology microscopic / kidney / nephropathy + systemic / pathology …
[15] = systemic / in life observation / body weight / body weight gain + systemic / organ weight / kidney / relative to body weight + systemic / …
[16] = systemic / organ weight / liver / relative to body weight
[17] = group: developmental, developmental / developmental malformation / bone / incomplete ossification + systemic / in life observation / body weight / fetal weight + …
[18] = group: maternal, systemic / in life observation / body weight / body weight + systemic / in life observation / body weight / body weight gain + systemic / in…
[19] = systemic / organ weight / liver / relative to body weight + reproductive / reproductive performance / aborted / aborted + reproductive / …
[20] = systemic / clinical chemistry / triglycerides / triglycerides
[21] = systemic / organ weight / kidney / absolute + systemic / organ weight / kidney / relative to body weight + systemic / organ weight / liver…

Compound: CC1(C)[C@H](C(=O)OCc2cccc(Oc3ccccc3)c2)[C@@H]1C=C(Cl)Cl [1RS cis-Permethrin]
- LEL (mouse [1]; [9]): 10 mg/kg/day
- NEL (mouse [1]; [9]): < 10 mg/kg/day
- LOAEL (mouse [1]; [10]): > 250 mg/kg/day
- NOAEL (mouse [1]; [10]): ≥ 250 mg/kg/day
- LEL (rat [2]; [11]): 50 mg/kg/day
- LOAEL (rat [2]; [11]): 50 mg/kg/day
- NEL (rat [2]; [12]): 10 mg/kg/day
- NOAEL (rat [2]; [12]): 10 mg/kg/day

Compound: COc1cc(-c2ccc(N)c(OC)c2)ccc1N.Cl.Cl [3,3'-Dimethoxybenzidine dihydrochloride]
- LEL (rat [3]; [13]): 11 mg/kg/day
- NEL (rat [3]; [13]): < 11 mg/kg/day
- LOAEL (rat [3]; [14]): 109 mg/kg/day
- NOAEL (rat [3]; [14]): 56 mg/kg/day
- LEL (rat [4]): 6 mg/kg/day
- LOAEL (rat [4]): 6 mg/kg/day
- NEL (rat [4]): < 6 mg/kg/day
- NOAEL (rat [4]): < 6 mg/kg/day
- LOAEL (rat [5]; [15]): > 120 mg/kg/day
- NOAEL (rat [5]; [15]): ≥ 120 mg/kg/day
- LEL (rat [5]; [16]): 13 mg/kg/day
- NEL (rat [5]; [16]): < 13 mg/kg/day

Compound: CCOc1nc(NC)nc(NC(=O)NS(=O)(=O)c2ccccc2C(=O)OC)n1 [Ethametsulfuron-methyl]
- LEL (dog): 478 mg/kg/day
- LOAEL (dog): 478 mg/kg/day
- NEL (dog): 87.3 mg/kg/day
- NOAEL (dog): 87.3 mg/kg/day
- LEL (rat [6]): 210 mg/kg/day
- LOAEL (rat [6]): > 210 mg/kg/day
- NEL (rat [6]): 21 mg/kg/day
- NOAEL (rat [6]): ≥ 210 mg/kg/day
- LEL (rat [7]; [17]): 4000 mg/kg/day
- LOAEL (rat [7]; [17]): 4000 mg/kg/day
- NEL (rat [7]; [17]): 1000 mg/kg/day
- NOAEL (rat [7]; [17]): 1000 mg/kg/day
- LEL (rat [7]; [18]): 4000 mg/kg/day
- LOAEL (rat [7]; [18]): 4000 mg/kg/day
- NEL (rat [7]; [18]): 1000 mg/kg/day
- NOAEL (rat [7]; [18]): 1000 mg/kg/day
- LEL (rabbit; [16]): 1000 mg/kg/day
- LOAEL (rabbit; [16]): 1000 mg/kg/day
- NEL (rabbit; [19]): 250 mg/kg/day
- NOAEL (rabbit; [19]): 250 mg/kg/day

Compound: O=[As]([O-])([O-])[O-].[Na+].[Na+].[Na+] [Trisodium arsenate]
- LEL (mouse [8]; [20]): 0.00625 mg/kg/day
- NEL (mouse [8]; [20]): < 0.00625 mg/kg/day
- LOAEL (mouse [8]; [21]): 0.625 mg/kg/day
- NOAEL (mouse [8]; [21]): 0.00625 mg/kg/day
